According to ChEMBL document CHEMBL1641537, “Chalcone-based inhibitors against hypoxia-inducible factor 1--structure activity relationship studies” (Bioorg Med Chem Lett, 2011):

Experiment: Inhibition of cobalt chloride-induced HIF-1 activation expressed in mouse NIH3T3 cells after 8 hrs by luciferase reporter gene assay
Assay type: cell-based
Conditions: NIH3T3, 8 h

IC50 | SMILES
3.2 µM | CC(C)=CCc1c(O)cc(C(=O)[C@H]2[C@@H](c3c(O)ccc(C(=O)/C=C/c4ccc(O)cc4)c3O)C=C(C)C[C@@H]2c2ccc(O)cc2O)cc1O [KUWANON R]
8.3 µM | CC(C)=CCc1c(O)cc(C(=O)[C@H]2[C@@H](c3c(O)ccc(C(=O)/C=C/c4ccc(O)cc4)c3O)C=C(C)C[C@@H]2c2ccc(O)cc2)cc1O [KUWANON V]
> 20 µM | COc1cc(O)c(C(=O)/C(C)=C/c2ccccc2)c(OC)c1
2.2 µM | COc1cc(O)c(C(=O)/C=C/c2cccc(Br)c2)c(OC)c1
> 20 µM | COc1cc(O)c(C(=O)/C=C/c2ccc(F)cc2)c(OC)c1
> 20 µM | O=C(/C=C/c1ccccc1)c1ccc(C(F)(F)F)cc1
3.6 µM | COc1cc(O)c(C(=O)/C=C/c2cccc(C)c2)c(OC)c1
> 20 µM | O=C(/C=C/c1ccccc1)c1ccc(F)cc1
> 20 µM | O=C(/C=C/c1ccccc1O)c1ccccc1
> 20 µM | COc1cc(O)c(C(=O)/C=C/c2ccc(Cl)cc2)c(OC)c1
9.6 µM | COc1cc(/C=C/C(=O)CC(=O)/C=C/c2ccc(O)c(OC)c2)ccc1O [CURCUMIN]
> 20 µM | O=C(/C=C/c1ccccc1)c1ccc(F)c(F)c1
4.1 µM | CC(C)=CCc1c(O)cc(C(=O)[C@H]2[C@@H](c3c(O)ccc(C(=O)/C=C/c4ccc(O)cc4O)c3O)C=C(C)C[C@@H]2c2ccc(O)cc2O)cc1O [KUWANON J]
11 µM | COc1ccc(/C=C/C(=O)c2c(O)cc(OC)cc2OC)cc1 [FLAVOKAWAIN A]
> 20 µM | O=C(/C=C/c1ccc(O)c(O)c1)c1ccc(O)cc1O [BUTEIN]
> 20 µM | Cc1ccc(C(=O)/C=C/c2ccccc2)cc1
9.9 µM | COc1cc(O)c(C(=O)/C=C/c2ccccc2C)c(OC)c1
3.3 µM | COc1cc(O)c(C(=O)/C=C/c2ccccc2)c(OC)c1 [FLAVOKAWAIN B]
> 20 µM | O=C(/C=C/c1ccc(O)cc1)c1ccccc1 [4-HYDROXYCHALCONE]
3.1 µM | COc1cc(O)c(C(=O)/C=C/c2ccc(O)cc2)c(OC)c1 [FLAVOKAWAIN C]
12 µM | CCCOc1ccc(/C=C/C(=O)c2c(O)cc(OC)cc2OC)cc1

SMILES | IC50
COc1cc(O)c(C(=O)/C=C/c2ccccc2Br)c(OC)c1 | 11.6 µM
